What was measured:
Type in all cases: in vivo, human
sweetness = assay: Blueberry sensory panels; PLS analysis, sweetness (Table 7); conditions: for PLS Coefficient: response Sweetness
Experimental: Sensory analysis was conducted similar to described above for tomatoes and strawberries in Examples 1 and 3. […] Panelists were trained with the scaling methods and were encouraged to return for the remainder of the study. Panelists rated overall liking, texture liking, sweetness, sourness, and flavor intensity using hedonic general Labeled Magnitude Scales (gLMS) (−100 to +100; −100=greatest disliking of any kind, +100=greatest liking of any kind) and intensity gLMS (0 to +100; 0=no sensation, 100=most intense sensation of any kind), which allow for improved comparison between panelists and between years (see Bartoshuk, L. M., et al., 2004 and Bartoshuk, L. M., et al., 2005). Panelists were also asked to rate the intensity of taste and flavor sensations of a hypothetical ideal blueberry on this scale. Each panelist received two to four berries of five to six genotypes in a single panel in a Williams design, which was generated by Compusense 5.6 (Compusense Inc., Guelph, Ontario, Canada). They were asked to eat the blueberries of each genotype at once, and to take a bite of cracker and sip of water in between samples. Ratings were recorded using Compusense software.
Soluble solids content (SSC), titratable acidity (TA), and volatiles were quantified as described above for tomato and strawberries. The volatiles were collected for two hours via dynamic headspace with HaySep Q 80-100 porous polymer adsorbent (Valco Instruments Company Inc., Houston, Tex.) and eluted with methylene chloride and nonyl acetate as an elution standard. Elutions were run on an Agilent 7890A Gas Chromatograph Flame Ionization Detector (GC-FID) DB-5 column (30 m length×[…]) for quantification and on an Agilent 7890A Gas Chromatograph coupled to an Agilent 5977A Mass Selective Detector (GC/MSD) for qualification (Agilent, Santa Clara, Calif.). Integrated peak area of each signal was normalized for elution, fitted to relative pure chemical response, corrected for sample mass, and expressed as nanograms per gram fresh weight per hour (ng gFW-1 h-1). Response fitting was calculated using the response factor of pure chemical standards (Sigma-Aldrich, St. Louis, Mo.) run on the same instrument.
Pair-wise correlations and significance between sensory measurements and primary bio-chemical components were calculated, with panelist as a random effect. Least Square Means (LSMeans) of the sensory data for each sample were obtained to account of the random effect of panelist. A partial least squares (PLS) analysis was constructed in JMP1 Pro 10 (SAS Institute Inc., Cary, N.C.) to reveal effectors of sensory ratings (see, e.g., Togari N., et al., 1995; Hough, G., et al., 1996; deKermadec, F., et al., 1997; Toscas, P. J., et al., 1999; and Tenenhaus, M., et al., 2005). The response variables (Y) considered corresponded to LSMeans of overall liking, sweetness, sourness, and blueberry flavor intensity. Glucose, fructose, sucrose, TA, pH, and 52 volatile compounds were considered as explanatory variables (X). The inclusion of texture liking was evaluated independently given that no explanatory physical measure was made for sample texture. […] The model was created without texture for analysis.
• Top six and bottom six biochemical measures explaining sensory responses as determined by partial least squares (PLS) analysis. […]

[1] = tested on: blueberry flavor intensity; assay: Blueberry sensory panels; PLS analysis, blueberry flavor intensity (Table 7); conditions: response Flavor
Experimental: (§1) Sensory analysis was conducted similar to described above for tomatoes and strawberries in Examples 1 and 3. […] Panelists were trained with the scaling methods and were encouraged to return for the remainder of the study. Panelists rated overall liking, texture liking, sweetness, sourness, and flavor intensity using hedonic general Labeled Magnitude Scales (gLMS) (−100 to +100; −100=greatest disliking of any kind, +100=greatest liking of any kind) and intensity gLMS (0 to +100; 0=no sensation, 100=most intense sensation of any kind), which allow for improved comparison between panelists and between years (see Bartoshuk, L. M., et al., 2004 and Bartoshuk, L. M., et al., 2005). […] Ratings were recorded using Compusense software.
(§2) Soluble solids content (SSC), titratable acidity (TA), and volatiles were quantified as described above for tomato and strawberries. […] Elutions were run on an Agilent 7890A Gas Chromatograph Flame Ionization Detector (GC-FID) DB-5 column (30 m length×[…]) for quantification and on an Agilent 7890A Gas Chromatograph coupled to an Agilent 5977A Mass Selective Detector (GC/MSD) for qualification (Agilent, Santa Clara, Calif.). Integrated peak area of each signal was normalized for elution, fitted to relative pure chemical response, corrected for sample mass, and expressed as nanograms per gram fresh weight per hour (ng gFW-1 h-1). […]

overall liking = assay: Blueberry sensory panels; PLS analysis, overall liking (Table 7); conditions: response Overall Liking
Experimental: as §1, §2

sourness = assay: Blueberry sensory panels; PLS analysis, sourness (Table 7); conditions: response Sourness
Text: Panelists were trained with the scaling methods and were encouraged to return for the remainder of the study. […] Panelists were also asked to rate the intensity of taste and flavor sensations of a hypothetical ideal blueberry on this scale. Each panelist received two to four berries of five to six genotypes in a single panel in a Williams design, which was generated by Compusense 5.6 (Compusense Inc., Guelph, Ontario, Canada). They were asked to eat the blueberries of each genotype at once, and to take a bite of cracker and sip of water in between samples. Ratings were recorded using Compusense software.
Soluble solids content (SSC), titratable acidity (TA), and volatiles were quantified as described above for tomato and strawberries. […] Integrated peak area of each signal was normalized for elution, fitted to relative pure chemical response, corrected for sample mass, and expressed as nanograms per gram fresh weight per hour (ng gFW-1 h-1). Response fitting was calculated using the response factor of pure chemical standards (Sigma-Aldrich, St. Louis, Mo.) run on the same instrument.
Pair-wise correlations and significance between sensory measurements and primary bio-chemical components were calculated, with panelist as a random effect. […] The inclusion of texture liking was evaluated independently given that no explanatory physical measure was made for sample texture. […]

[2] = tested on: strawberry flavor intensity; assay: Strawberry consumer panel; correlation of volatiles with strawberry flavor intensity
Experimental: Quantification of volatiles in an elution was performed on an Agilent 7890A Series gas chromatograph (GC) (carrier gas; He at 3.99 mL min^−1; splitless injector, temperature 220° C., injection volume 2 μl) equipped with a DB-5 column ((5%-Phenyl)-methylpolysiloxane, 30 m length×250 μm i.d.×1 μm film thickness; Agilent Technologies, Santa Clara, Calif., USA). Oven temperatures programmed from 40° C. (0.5 min hold) at 5° C. min^−1 to 250° C. (4 min hold). Signals captured with a flame ionization detector (FID) at 280° C. Peaks from FID signal were integrated manually with Chemstation B.04.01 software (Agilent Technologies, Santa Clara, Calif.). Volatile emission (ng gFW^−1 h^−1) calculated based on individual peak area relative to sample elution standard peak area. GC-Mass Spectrometry (MS) analysis of elution on an Agilent 6890N GC in tandem with an Agilent 5975 MS (Agilent Technologies, Santa Clara, Calif., USA) and retention time comparison with authentic standards (Sigma Aldrich, St Louis, Mo., USA) for volatile identification (Schmelz, 2001).
(§3) All consumer panels were approved by the University of Florida Institutional Review Board. Over the course of two annual seasons 166 strawberry consumers (58 male, 108 female) were recruited to evaluate strawberry cultivars. Ages of panelist ranged from 18 to 71, with a median age of 24. Panelists self-classified themselves as 98 White or Caucasian, 11 Black or African-American, 1 Native American, Alaska Native or Aleutian, 41 Asian/Pacific Islander, and 15 Other. An average of 106 (range of 98-113) panelists evaluated between three and five cultivars per session (Tieman, 2012). Fresh, fully-ripe strawberry fruit was removed from overnight 4° C. dark storage and allowed to warm to room temperature prior to sensory analysis. Each panelist was given one to two whole strawberries for evaluation, depending on cultivar availability. Panelist took a bite of each sample, chewed, and swallowed it. Ratings for overall liking and liking for texture were scaled on hedonic general labeled magnitude scale (gLMS) in the context of all pleasure/displeasure experiences. Perceived intensity of sweetness, sourness, and strawberry flavor were scaled in context of all sensory experiences using sensory gLMS (Bartoshuk, 2003; Bartoshuk, 2005; Tieman, 2012). Scales were employed to mediate valid comparisons across subjects and sessions.
Means and standard errors for consumer, physical, and metabolite measurements were determined from all replicates using JMP (Version 8. SAS Institute Inc., Cary, N.C., 1989-2008). Bivariate analysis among individual measurements of samples allowed for linear fit, which includes summary of fit, analysis of variance, t-test, and correlation analysis for density ellipse. […]

[3] = tested on: perceived sweetness intensity; assay: Strawberry consumer panel; initial multiple regression of volatiles against perceived sweetness intensity independent of glucose, fructose or sucrose (Table 5); conditions: standard least squares; for FRUCTOSE t RATIO: sweetness intensity independent of fructose; for GLUCOSE t RATIO: sweetness intensity independent of glucose; for SUCROSE t RATIO: sweetness intensity independent of sucrose
Experimental: Step-wise multiple regressions of all volatile compounds against perceived intensity of sweetness is performed independent of either glucose, fructose, or sucrose concentration, separately (Table 5).
At least 100 grams or seven berries of each sample were removed from 4° C. dark overnight storage prior to volatile collection. Samples were homogenized in a blender prior to splitting into three 15 gram replicates for immediate capturing of volatile emission and remainder of sample frozen in N2 (I) and stored at −80° C. for later sugar and acid quantification.
Oven temperatures programmed from 40° C. (0.5 min hold) at 5° C. min^−1 to 250° C. (4 min hold). Signals captured with a flame ionization detector (FID) at 280° C. Peaks from FID signal were integrated manually with Chemstation B.04.01 software (Agilent Technologies, Santa Clara, Calif.). Volatile emission (ng gFW^−1 h^−1) calculated based on individual peak area relative to sample elution standard peak area.
as §3, with “Over the course of two annual seasons 166 strawberry consumers (58 male, 108 female) were recruited to evaluate strawberry cultivars.” left out, “An average of 106 (range of 98-113) panelists evaluated between three and five cultivars per session (Tieman, 2012).” left out, “Perceived intensity of sweetness, sourness, and strawberry flavor were scaled in context of all sensory experiences using sensory gLMS (Bartoshuk, 2003; Bartoshuk, 2005; Tieman, 2012).” left out
For the first analysis, individual volatile compound concentrations were regressed using the “enter” method in SPSS Statistics (IBM Corp, Armonk, N.Y., USA).

Compound	PLS Coefficient (sweetness)	PLS Coefficient [1]	PLS Coefficient (overall liking)	PLS Coefficient (sourness)	correlation with flavor intensity [2]	FRUCTOSE t RATIO [3]	GLUCOSE t RATIO [3]	SUCROSE t RATIO [3]	independent enhancement of perception of sweetness (sweetness; multivariate regression analysis)
CC12CCC(CC1)C(C)(C)O2 [1,8-Cineole]	−0.1925	−0.0876	−0.1912	0.1444					
CCCC(=O)OCC [105-54-4]					significant positive correlation with flavor intensity	2.533	2.493	0.034	
CCCC(=O)OC [623-42-7]					significant positive correlation with flavor intensity	1.455	1.452	0.419	
COC1=C(C)OC(C)C1=O (centres unmarked) [4077-47-8]					significant positive correlation with flavor intensity	2.414	2.185	0.299	
C=C1CC[C@H]2O[C@]2(C)CC[C@@H]2[C@@H]1CC2(C)C [β-Caryophyllene oxide, β-caryophyllene oxide]	0.1418	0.1527	0.1455						independently enhancing perception of sweetness
